A compilation of properties of binary mixtures (doi:10.2298/jsc160317058s)

Assay: xn = mol fraction of the nth substance listed
Details: 100 kPa

CN(C)c1ccccc1 + CCCC[n+]1ccn(C)c1.O=S(=O)([O-])C(F)(F)F
viscosity [mPa·s]
Details | 288.15 K | 293.15 K | 298.15 K | 303.15 K | 308.15 K | 313.15 K | 318.15 K | 323.15 K | 328.15 K | 333.15 K
x1 = 0.1 | 97.6 | 75.7 | 59.9 | 48.1 | 39.5 | 32.2 | – | 23 | – | –
x1 = 0.2 | 72.8 | 57.1 | 45.7 | 37 | – | – | 21.46 | 18.3 | 15.74 | 13.64
x1 = 0.2998 | – | 42.8 | 34.8 | 28.4 | 23.9 | 19.91 | 17.1 | 14.72 | 12.77 | 11.16
x1 = 0.397 | – | 31.5 | – | 21.69 | 18.27 | 15.46 | 13.4 | 11.63 | 10.19 | 8.98
x1 = 0.5045 | 26.1 | 21.17 | 17.76 | 14.77 | 12.85 | 11.04 | 9.68 | 8.5 | 7.52 | –
x1 = 0.5996 | 16.87 | 13.93 | 11.92 | 10.23 | 8.87 | 7.69 | 6.84 | 6.08 | 5.43 | 4.9
x1 = 0.6997 | – | 8.5 | 7.42 | 6.47 | 5.71 | – | – | 4.09 | 3.7 | 3.36
x1 = 0.7994 | 6 | 5.21 | 4.62 | 4.1 | 3.68 | 3.3 | 3.01 | 2.75 | 2.52 | 2.31
x1 = 0.8945 | 3.27 | 2.91 | – | 2.37 | 2.164 | 1.988 | – | 1.692 | – | –
x1 = 1 | – | – | 1.302 | 1.206 | 1.123 | 1.056 | 0.981 | – | 0.865 | 0.819

Nc1ccccc1 + CCCC[n+]1ccn(C)c1.O=S(=O)([O-])C(F)(F)F
x1 = 1
Details | viscosity [mPa·s]
288.15 K | 5.32
293.15 K | 4.41
298.15 K | 3.74
303.15 K | 3.2
308.15 K | 2.78
313.15 K | 2.45
318.15 K | 2.159
328.15 K | 1.738
333.15 K | 1.577

CCCC[n+]1ccn(C)c1.O=S(=O)([O-])C(F)(F)F + CN(C)c1ccccc1
x2 = 0
Details | viscosity [mPa·s]
288.15 K | 132.7
293.15 K | 102
298.15 K | 80.1
303.15 K | 64
313.15 K | 42.8
318.15 K | 35.7
323.15 K | 30
328.15 K | 25.5
333.15 K | 22

CCCC[n+]1ccn(C)c1.O=S(=O)([O-])C(F)(F)F + Nc1ccccc1
viscosity [mPa·s]
Details | 288.15 K | 293.15 K | 298.15 K | 303.15 K | 308.15 K | 313.15 K | 318.15 K | 323.15 K | 328.15 K | 333.15 K
x2 = 0 | – | 102 | 80.1 | 64 | 52.2 | 42.8 | 35.7 | 30 | 25.5 | 22
x2 = 0.1 | 110.3 | 85.3 | 67.5 | 54.6 | 44.4 | 36.6 | 30.6 | 25.9 | 22.17 | 19.07
x2 = 0.1995 | 90.9 | 70.6 | – | 45.5 | 37.2 | 30.7 | 25.8 | 21.9 | 18.82 | –
x2 = 0.3002 | – | – | 45.9 | – | 30.6 | 25.4 | 21.47 | – | 15.71 | 13.63
x2 = 0.3996 | – | – | – | – | – | – | – | 15.11 | 13.02 | 11.38
x2 = 0.8999 | 8.95 | 7.31 | 6.18 | 5.26 | 4.54 | 3.93 | 3.5 | – | – | 2.47
